target: Protein tyrosine phosphatase type IVA 3 (Homo sapiens, UniProt O75365); test: Inhibition of human PRL3 expressed in Escherichia coli BL21 (DE3)
Sequence (O75365 whole entry): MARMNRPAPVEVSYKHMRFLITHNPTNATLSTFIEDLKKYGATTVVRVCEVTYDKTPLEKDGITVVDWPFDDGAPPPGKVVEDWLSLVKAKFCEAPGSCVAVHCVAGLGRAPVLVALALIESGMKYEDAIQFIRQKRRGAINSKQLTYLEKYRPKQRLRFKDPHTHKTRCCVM

Row | Compound | IC50 [µM]
1 | C=CCn1c(SCC(=O)c2ccc(O)c(O)c2)nnc1-c1cccc(Cl)c1 | 43.8
2 | COc1ccc(-n2nnnc2SCC(=O)c2ccc(O)c(O)c2)cc1 | 44.7
3 | N#CC1=C(S)N(c2ccccc2)C(/C=C/c2ccc(-c3ccc(Cl)cc3)o2)NC1=O (stereo not given) | 18.3
4 | O=C1NC(=O)/C(=C\c2cccn2-c2ccc(C(=O)O)cc2)N1 | 28.1
5 | O=C1NC(=S)S/C1=C/c1ccc(-c2ccccc2C(=O)O)o1 | 13.3

From ChEMBL document CHEMBL1141551, “Discovery of novel PRL-3 inhibitors based on the structure-based virtual screening” (Bioorg Med Chem Lett, 2008)
